The nature of data set [1]: Excretion of administered dose in rat urine and feces. The data set is classed as in vivo, male Sprague-Dawley rats. As to conditions: IV; 24 h after [14C]Compound 1.
The next data set has as its system pig liver esterase. The data set can be described thus: Incubation with pig liver esterase. The data set is classed as in vitro ADME. The settings on record: Esterase 14 U, 60 min, 10 μM. How it is done: Pig liver esterase (14 U) suspended in incubation buffer (0.1 M potassium phosphate, pH 7.4) was incubated for 60 min at 37° C. with 10 μM Compound 1 from a stock solution in DMSO (final DMSO concentration was 0.1%); reaction was initiated with the addition of test article. Incubations with no protein served as controls. Reactions were terminated by the addition of 0.1 mL of stop solution (acetonitrile). The samples were vortex-mixed for 30 sec and then centrifuged at 10,000×g for 10 min. The supernatant was dried using a Labconco CentriVap concentrator and the dry residue reconstituted in water, transferred to an HPLC glass vial and analyzed by HPLC-UV method 2 (described above).
(§1) Metabolic stability of the proposed metabolites was conducted by incubating the chemically synthesized standards Compound 2, Compound 4 and Compound 3 as described above for Compound 1. When possible, formation of Compound 5 was verified by incubating samples with alkaline phosphatase (10 U) for 60 min at 37° C.

A short description of data set [2]: Stability in rat liver microsomes. The data set is classed as in vitro ADME. As to conditions: 60 min, 50 μM; for % Residual compound following incubation with liver microsomes: rat microsomes 1 mg/mL. The method, then:
(§2) Disappearance of parent Compound 1 was used to evaluate the in vitro metabolism thereof. Relative levels of unchanged Compound 1 were measured by HPLC-UV method 1. Residual Compound 1 is reported as percent difference from time zero or control. The HPLC-UV system was as follows:
(§3) Incubations with liver microsomes or cytosol were conducted in a final volume of 0.1 mL per incubation time point. […] DMSO (final DMSO concentration was 0.1%) was incubated at 37° C. from 0-60 min with pooled microsomal protein (1.0 mg/mL), suspended in incubation buffer (0.1 M potassium phosphate, pH 7.4, 5 mM MgCl2, and 0.1 mM EDTA). The microsomal reaction was initiated by the addition of NADPH (3 mM final concentration). Incubations with (a) no protein or (b) no NADPH served as controls. Reactions were terminated by the addition of 0.2 mL of stop solution (acetonitrile). The samples were vortex-mixed for 30 sec and then centrifuged at 10,000×g for 10 min. The supernatant was dried using a Labconco CentriVap concentrator and the dry residue reconstituted in water, transferred to an HPLC glass vial and analyzed by HPLC-UV method 1 (described above).
as §1
(In general: Liver microsomes are a subcellular fraction often used to study metabolism.)

The nature of data set [3]: Stability in human liver microsomes. The settings on record: 60 min, 50 μM; for % Residual compound following incubation with liver microsomes: human microsomes 1 mg/mL. The format is in vitro ADME. The method, then: as §2
Incubations with liver microsomes or cytosol were conducted in a final volume of 0.1 mL per incubation time point. […] The microsomal reaction was initiated by the addition of NADPH (3 mM final concentration). Incubations with (a) no protein or (b) no NADPH served as controls. Reactions were terminated by the addition of 0.2 mL of stop solution (acetonitrile). The samples were vortex-mixed for 30 sec and then centrifuged at 10,000×g for 10 min. The supernatant was dried using a Labconco CentriVap concentrator and the dry residue reconstituted in water, transferred to an HPLC glass vial and analyzed by HPLC-UV method 1 (described above).
as §1

Data set [4] in a line: Stability in monkey liver microsomes. The data set is classed as in vitro ADME. As to conditions: 60 min, 50 μM; for % Residual compound following incubation with liver microsomes: monkey microsomes 1 mg/mL. How it is done:
as §2, §3, §1

Data set [5] in a line: Metabolite profile in rat urine. The data set is classed as in vivo, male Sprague-Dawley rats. The settings on record: for Percent of Dose, Urine 0-24 h: after [14C]Compound 1; for % AD, estimated: from single animal HPLC distribution and mean % AD. The method, then:
Pooled urine samples were prepared for Groups 1C and 2C by mixing a fixed percent of the total volume for all four animals from the selected time points. For Group 1C, samples of the 1-, 2-, 6-, and 24-h collection intervals were pooled. For Group 2C, a pool of samples from all four animals was prepared for the 24 h collection intervals only. For 1-, 2-, and 6 h collection intervals, a urine sample of a single animal of Group 2A or 2B was used for analysis. All samples were brought to room temperature and vortexed briefly. The samples were diluted as necessary (2- to 20-fold) with appropriate aqueous mobile phase for the selected HPLC method. The pooled and diluted samples from the 24 h collection interval were centrifuged at 2040×g for 10 minutes. All other samples were analyzed without centrifugation. HPLC method 1 was used for HPLC profiling. Selected samples were analyzed by HPLC method 2 for comparison with the metabolite profile generated by microsomal and hepatocyte incubations (Examples 14 and 15) and with the metabolite profile of liver extracts.
Percent of the administered dose (% AD) for parent drug and each metabolite at each collection period=(% of the total radioactivity in the sample attributed to the metabolite)*(total radioactivity expressed as % of the administered dose, recovered during the corresponding collection period).
HPLC analyses of pooled urine samples of all time points were conducted for Group 1C. Metabolites R1, R2, R3, R4, R5, R6, R7 and R8 were characterized based on retention time.
For the PO dose group, a pooled urine sample from the 24-h collection time was analyzed. For 1-, 2-, and 6-h collection times, the majority of the samples had been used for radioanalysis. The remaining samples were insufficient for proportional pooling. Therefore, single animal samples of […] groups were used for HPLC profiling. Metabolites R^1, R^2, R^3, R^4, R^5, R^6, R^7 and R^8 were characterized based on retention time.
Table 50 contains data from single animal samples and pooled samples. To estimate overall distribution of urinary metabolites, it was assumed that the profile from a single animal is reflective of the overall average metabolite profile. Therefore, HPLC distribution data from single animals was used to calculate the percentage of administered dose excreted as various metabolites during the 1-, 2-, and 6-h collection intervals. Metabolites R1, R2, R3, R4, R5, R6, R7 and R8 were characterized based on retention time.

The mark [6] stands for this setting: PO dose urine, 1 h collection, single animal (#15, Group 2A).
Where [7] appears, read: PO dose urine, 2 h collection, single animal (#20, Group 2B).
The mark [8] stands for this setting: PO dose urine, 6 h collection, single animal (#20, Group 2B).
The mark [9] stands for this setting: estimated profile table, group 2C (PO dose) urine, 24 h.
Setting [10] is: group 1C (IV dose) pooled urine, 1 h collection.
Where [11] appears, read: group 1C (IV dose) pooled urine, 2 h collection.
Setting [12] is: group 1C (IV dose) pooled urine, 6 h collection.
Setting [13] is: group 1C (IV dose) pooled urine, 24 h collection.
Where [14] appears, read: group 2C (PO dose) pooled urine, 24 h collection.

On to `C[C@@]1(O)[C@H](O)[C@@H](COP(=O)(O)O)O[C@H]1n1cnc2c(=O)[nH]c(N)nc21` [Compound 5, [(2R)-2-methyl-β-D-ribofuranosyl]guanine 5′-monophosphate], for which, in data set [1], the “Percent of Dose, Total (urine, feces and liver)” value (“Percent of Dose, Total” below) is 1.05% of Dose.

For the molecule `CC(C)(CO)C(=O)SCCOP(N)(=O)OC[C@H]1O[C@@H](n2cnc3c(=O)[nH]c(N)nc32)[C@](C)(O)[C@@H]1O` (mixture of isomers) [Compound 3, {9-[(2R)2-C-methyl-β-D-ribo-furanosyl]-guanin}-5′-yl-O-(hydroxy-tert-butyl-S-acyl-2-thioethyl) phosphoramidate], in the data set on pig liver esterase, the “Residual compound following incubation with pig liver esterase” value is 97%. Besides, the NADPH-dependent metabolism is 10% in data set [2] (rat liver microsomes), 20-30% in data set [3] (human liver microsomes) and 20-30% in data set [4] (monkey liver microsomes). The “% Residual compound following incubation with liver microsomes” value in data set [2] (NADPH) turned out to be 90%; in data set [2] (No Cofactor), 101%; in data set [3] (NADPH), 82%; in data set [3] (No Cofactor), 103%; in data set [4] (NADPH), 76%; in data set [4] (No Cofactor) it was 89%.

On to `C[C@@]1(O)[C@H](O)[C@@H](CO)O[C@H]1n1cnc2c(=O)[nH]c(N)nc21` [2′-C-methyl guanosine, 9-(2-C-methyl-β-D-ribofuranosyl)guanine, reference compound], for which the “Total excretion (% AD), urine” value in data set [5] (IV (1C)) was 18.0 % AD; in data set [5] (PO (2C), urine data estimated) it was 2.56 % AD. Moreover, the “Percent of Dose, Urine 0-24 h” value in data set [5] (IV) is listed as 18.0% of Dose; in data set [5] (Oral) it was 2.56% of Dose. The “% AD (percent of administered dose)” value is reported as 0.004 % AD in data set [5] (setting [6]); 0.06 % AD in data set [5] (setting [7]); 0.24 % AD in data set [5] (setting [8]); 0.48 % AD in data set [5] (setting [10]); 1.79 % AD in data set [5] (setting [11]); 1.35 % AD in data set [5] (setting [12]). Moreover, the “% AD (percent of administered dose)” value in data set [5] (setting [13]) is on record as 14.4 % AD; in data set [5] (setting [14]), 2.14 % AD. The “% HPLC (percent of HPLC peak area in the sample extract)” value is listed as 5.33% in data set [5] (setting [6]); 56.2% in data set [5] (setting [7]); 86.18% in data set [5] (setting [8]); 92.1% in data set [5] (setting [9]); 5.33% in data set [5] (estimated profile, group 2C (PO dose) urine, 1 h, single animal % HPLC distribution); 56.2% in data set [5] (estimated profile, group 2C (PO dose) urine, 2 h, single animal % HPLC distribution). Moreover, the “% HPLC (percent of HPLC peak area in the sample extract)” value in data set [5] (estimated profile, group 2C (PO dose) urine, 6 h, single animal % HPLC distribution) was 86.18%; in data set [5] (setting [10]), 2.12%; in data set [5] (setting [11]), 35.1%; in data set [5] (setting [12]), 57.7%; in data set [5] (setting [13]), 86.7%; in data set [5] (setting [14]), 92.1%. The “% AD” value in data set [5] (setting [9]) is listed as 2.14 % AD. Besides, the “% of total urinary excretion, estimated” value in data set [5] (estimated profile, group 2C (PO dose) urine) is listed as 90.4%. Moreover, the “% AD, estimated” value in data set [5] (estimated profile, group 2C (PO dose) urine, 1 h) is reported as 0.001 % AD; in data set [5] (estimated profile, group 2C (PO dose) urine, 2 h) it was 0.02 % AD; in data set [5] (estimated profile, group 2C (PO dose) urine, 6 h), 0.40 % AD. In addition, the “Total % AD, estimated” value in data set [5] (estimated profile, group 2C (PO dose) urine, total of all collections) is given as 2.56 % AD. The “% of total urinary excretion” value in data set [5] (group 1C (IV dose) urine) turned out to be 38.4%. The “Total % AD” value in data set [5] (group 1C (IV dose) urine, total of all collections) was found to be 18.0 % AD. In addition, the “% of the total urinary excretion” value turned out to be 38.4% in data set [5] (rat urine, IV dose 50 mg/kg) and 90.4% in data set [5] (rat urine, PO dose 100 mg/kg). Moreover, the “urinary component, % of the administered dose (% AD)” value in data set [5] (rat urine, IV dose 50 mg/kg, 0-24 h, 50 mg/kg) is 18 % AD. Further, the “urinary component, estimated % of the administered dose (% AD)” value in data set [5] (rat urine, PO dose 100 mg/kg, 0-24 h) is on record as 2.6 % AD. In data set [1], the “Percent of Dose, Total” value was 34.5% of Dose.

Take `C[C@@]1(O)[C@H](O)[C@@H](COP(=O)(O)OP(=O)(O)O)O[C@H]1n1cnc2c(=O)[nH]c(N)nc21` [Compound 6, [(2R)-2-methyl-β-D-ribofuranosyl]guanine 5′-diphosphate]: the “Percent of Dose, Total” value in data set [1] is 0.29% of Dose.

The record behind these values is patent US20100003217A1, “Compounds and Pharmaceutical Compositions for the Treatment of Viral Infections” (priority 2008, published 2010).
